Measured values published in paper PMC5482315 (Biochimica et Biophysica Acta, 2017).
Read-outs that look alike come from different tables or passages of the source.

Key:
[1] = molecular target: T1, VanSA (Enterococcus faecium, UniProt Q06240); experiment: VanSA autophosphorylation activity assay (Universal Kinase Activity Kit); type: biochemical, Enterococcus faecium BM4147; settings: n = 3, result in words; for activity of VanSA (autophosphorylation): 5-fold molar equivalent of ligand, 20 min pre-incubation, 40 min with ATP, 25 mM HEPES pH 8.0, OD620 malachite green; for phosphorylation states of VanSA (activity profile): activity profile over 40 min
Protocol: Assays were conducted as per the instructions provided in the R&D Systems Universal Kinase Activity Kit (Catalogue # EA004, R&D), changing the pH to 8.0; therefore all assays were conducted in 25 mM HEPES pH 8.0, 150 mM NaCl, 10 mM MgCl2, and 10 mM CaCl2. Compatibility checks for the activity of CD39L2 were made in the new conditions. A phosphate standard curve in the new assay conditions was used to determine the conversion factor (CF) for CD39L2 by calculating the slope of OD620 × phosphate input (KH2PO4). This CF was used in later calculations to determine the amount of PO4^2 − produced in later experiments. For ligand screens, VanSA (0.2 μg) was incubated in the absence and presence of 5-fold molar equivalent of ligands for 20 min prior to the initiation of autophosphorylation by the addition of ATP; after which autophosphorylation was allowed to proceed for 40 min before reactions were stopped by the addition of 30 μl Malachite Green Reagent A (ammonium molybdate in 3 M sulphuric acid) at t = 60. 100 μl distilled H2O was added to each well, followed by 30 μl of Malachite Reagent B (malachite green oxalate and polyvinyl alcohol) and the colour allowed to develop for 20 min before determining the optical density at 620 nm.

[2] = molecular target: T1, VanSA; experiment: thermal denaturation of VanSA by far-UV CD (melting temperature); type: binding, Enterococcus faecium BM4147; settings: 5-fold molar equivalent of ligand; for Melting temperature (Tm) of VanSA in the presence of screened ligands: monitored at 222 nm, 20–95 °C in 5 °C increments, 10 mM Tris–HCl pH 8.0 ligand stocks, 30 min at 20 °C, VanSA alone 44 ± 0.71
Protocol: (§1) Ligand-containing samples were performed by addition of 5-fold molar equivalent of ligand stocks in 10 mM Tris–HCl pH 8.0 (control incubated with equivalent volume of 10 mM Tris–HCl pH 8.0). All samples were incubated at 20 °C for 30 min prior to data collection. All data was analysed using CDApps where the mean residue weight of VanSA was taken to be 113. Unless otherwise stated, all spectra presented are difference spectra where all relevant background buffers, ligands etc. have been subtracted. Data acquired when the HT of the detector (PMT) was equal to or > 600 V were excluded from the analyses. Far-UV measurements (180–260 nm) were commonly collected using 0.5 mg/ml of VanSA with bandwidth of 1 nm and 1 s integration time. Data presented in molar extinction (Δε). Temperature denaturation measurements were collected over the temperatures (20 °C–95 °C, in 5 °C increments) in the absence and presence of ligands. Samples were incubated at the initial 20 °C for 30 min after ligand or solvent addition prior to data acquisition. At each temperature step, reactions were incubated for 2 min prior to data collection (1 scan). A final scan was acquired post-temperature ramp after returning to 20 °C and incubation for 20 min before data acquisition. Data was analysed using CDApps to obtain difference spectra where all controls (buffers, ligands, etc.) had been subtracted. Change in CD (mdeg) at a specific wavelength was transferred to OriginPro® 9 and plotted against the corresponding temperature for fitting using Gibbs-Helmholtz equation derived from Boltzmann distribution, [65] sigmoidal two-state denaturation curve to a Boltzmann distribution and the expression modified to include parameters for fitting of thermal denaturation data for the calculation of the melting temperature (Tm).

[3] = molecular target: T1, VanSA; experiment: near-UV CD titration of VanSA with ligand (binding constant); design: species or system Enterococcus faecium BM4147
Protocol: as §1
Near-UV measurements (260–350 nm) were collected using 1 mg/ml of protein using 10 mm pathlength cell, 2 nm bandwidth, 1 nm increments and 1 s integration. Titration experiments were conducted as described for standard near-UV measurements, with the modification of measurements collected after the addition of incremental volumes of ligand stock as described previously, [70]. Change in CD (mdeg) a specific wavelength was monitored, the values transferred to OriginPro® and plotted against respective ligand concentration (M) and fitted with a hill1 binding or biphasic dose response function to determine the kd for binding.

[4] = molecular target: T1, VanSA; experiment: near-UV CD ligand binding screen of VanSA; design: species or system Enterococcus faecium BM4147; settings: 5-fold molar equivalent of ligand, qualitative
Protocol: Ligand-containing samples were performed by addition of 5-fold molar equivalent of ligand stocks in 10 mM Tris–HCl pH 8.0 (control incubated with equivalent volume of 10 mM Tris–HCl pH 8.0). All samples were incubated at 20 °C for 30 min prior to data collection. All data was analysed using CDApps where the mean residue weight of VanSA was taken to be 113. Unless otherwise stated, all spectra presented are difference spectra where all relevant background buffers, ligands etc. have been subtracted. Data acquired when the HT of the detector (PMT) was equal to or > 600 V were excluded from the analyses. Far-UV measurements (180–260 nm) were commonly collected using 0.5 mg/ml of VanSA with bandwidth of 1 nm and 1 s integration time. Data presented in molar extinction (Δε). […] Data was analysed using CDApps to obtain difference spectra where all controls (buffers, ligands, etc.) had been subtracted. […]
Near-UV measurements (260–350 nm) were collected using 1 mg/ml of protein using 10 mm pathlength cell, 2 nm bandwidth, 1 nm increments and 1 s integration. […] Change in CD (mdeg) a specific wavelength was monitored, the values transferred to OriginPro® and plotted against respective ligand concentration (M) and fitted with a hill1 binding or biphasic dose response function to determine the kd for binding.

[5] = molecular target: T1, VanSA; experiment: fluorescence emission of VanSA Trp residues with antibiotics; type: binding, Enterococcus faecium BM4147; settings: excitation 295 nm, equivalent ratio 1:7, 23 °C; n = 3; VanSA alone λmax 334 nm (blue shift)
Protocol: Fluorescence spectroscopy was carried out using a Chirascan-Plus CD Spectrometer (Applied Photophysics) using 1 cm pathlength cell (1 cm × 1 cm, 4 mm × 4 mm window) at 23 °C, 5 nm bandwidth and 600 V, 295 nm excitation wavelength to excite the VanSA Trp residues was applied to the sample and emission monitored between 300 and 500 nm in 1 nm increments. Samples incubated at 20 °C for 30 min prior to data collection.
Data analysis performed using CDApps to obtain values which have been buffer subtracted and dilution-corrected for all components (F values) (protein only, ligand only, protein-ligand). Fo values were determined by normalisation to the initial value for each condition, followed by calculation of F/Fo using OriginPro® 9. Standard deviation (n = 3) shown by error bars.

[6] = cited from earlier work; for Kd: surface plasmon resonance and other studies, read-out: kd for vancomycin binding
Excerpt: Using model cell wall precursor peptides such as N-acetyl-D-Ala-D-Ala, binding studies in aqueous solution have established that for many glycopeptides, the formation of entropically favourable asymmetric, back-to-back homodimers of the antibiotic, [11], [12] is mediated by sugar-sugar recognition, [13].

[7] = system: VanSsc; design: method as in PMID 20383152; settings: result in words; cited from earlier work
Excerpt: The nature of the activating inducer for VanA-type resistance remains unknown. […] Other proposed ligands include the antibiotic-peptidoglycan precursor complex and the accumulating peptidoglycan precursors as a result of vancomycin mode of action, [54]. Here, we describe the use of in vitro approaches to further characterise the ligand-induced activities of VanSA. || Previous studies identified a 4-amino-acid motif (DQGW) from the predicted extracellular binding region of VanSsc (equivalent to the type B VanS receptor in soil actinomycetes) to which a modified vancomycin photoaffinity probe bound.

T1 sequence (Q06240 whole entry): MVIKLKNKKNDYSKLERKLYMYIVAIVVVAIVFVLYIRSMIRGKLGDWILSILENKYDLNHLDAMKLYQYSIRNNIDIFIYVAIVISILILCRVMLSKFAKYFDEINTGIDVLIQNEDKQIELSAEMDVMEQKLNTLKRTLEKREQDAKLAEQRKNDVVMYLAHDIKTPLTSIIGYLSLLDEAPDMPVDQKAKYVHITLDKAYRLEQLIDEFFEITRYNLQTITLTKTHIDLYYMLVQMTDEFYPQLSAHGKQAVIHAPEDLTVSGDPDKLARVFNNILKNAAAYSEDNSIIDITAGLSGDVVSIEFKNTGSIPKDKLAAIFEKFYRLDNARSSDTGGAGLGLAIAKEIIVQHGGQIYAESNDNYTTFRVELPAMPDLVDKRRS

Compound: CC(=O)N[C@@H]1[C@@H](O)[C@H](O)[C@@H](CO)O[C@H]1O [N-acetylglucosamine, N-Acetyl-D-glucosamine]
- activity of VanSA (autophosphorylation) [1]: decreases in activity

Compound: CC(=O)N[C@H]1C(O)O[C@H](CO)[C@@H](O)[C@@H]1O[C@H](C)C(=O)O (some centres unmarked) [N-acetylmuramic acid, N-Acetylmuramic acid]
- Melting temperature (Tm) of VanSA in the presence of screened ligands [2]: 44 ± 0.63 °C
- activity of VanSA (autophosphorylation) [1]: decreases in activity

Compound: CN[C@H](CC(C)C)C(=O)N[C@H]1C(=O)N[C@@H](CC(N)=O)C(=O)N[C@H]2C(=O)N[C@H]3C(=O)N[C@H](C(=O)N[C@H](C(=O)O)c4cc(O)cc(O)c4-c4cc3ccc4O)[C@H](O)c3ccc(c(Cl)c3)Oc3cc2cc(c3O[C@@H]2O[C@H](CO)[C@@H](O)[C@H](O)[C@H]2O[C@H]2C[C@](C)(N)[C@H](O)[C@H](C)O2)Oc2ccc(cc2Cl)[C@H]1O [vancomycin]
- Kd [3]: 70 µM
- binding mechanism ([3]; near-UV CD titration): one-step process of moderate affinity
- Hill coefficient ([3]; near-UV CD titration, Hill 1 function): 1.65 ± 0.84
- thermal stability of VanSA ([2]; far-UV thermal denaturation, result in words): significant increase of the thermal stability
- Melting temperature (Tm) of VanSA in the presence of screened ligands [2]: 79 ± 4.04 °C
- changes in local tertiary structure (tyrosine/tryptophan region) [4]: changes to the tyrosine/tryptophan region
- fluorescence emission λmax of VanSA upon addition of antibiotic [5]: 328 nm
- activity of VanSA (autophosphorylation) [1]: significant increases in the activity
- phosphorylation states of VanSA (activity profile) [1]: quicker, longer-lived phosphorylation states
- Kd ([6]; ref 17): 1.32 µM
- Kd ([6]; ref 18): 2.7 µM
- Kd ([6]; ref 19): 3.39 µM
- binding to VanS of actinomycetes [7]: shown to bind in type A equivalent systems of actinomycetes

Compound: Ala-D-γ-Glu-Lys-D-Ala-D-Ala [peptidoglycan component]
- Melting temperature (Tm) of VanSA in the presence of screened ligands [2]: 51 ± 3.23 °C

Compound: D-Ala-D-Ala
- Melting temperature (Tm) of VanSA in the presence of screened ligands [2]: 48 ± 4.07 °C

Compound: teicoplanin
- binding mechanism ([3]; near-UV CD titration): two-step mechanism
- Hill coefficient ([3]; near-UV CD titration, Bi Dose Response function, two-step, first value): 0.97 ± 0.77
- Hill coefficient ([3]; near-UV CD titration, Bi Dose Response function, two-step, second value): 0.977 ± 0.76
- Kd ([3]; near-UV CD titration, change in CD (mdeg) at 292 nm, BidoseResponse function, two-step mechanism, first value printed in picture, VanSA 1 mg/ml, n = 4, read-out: Binding constant (kd)): 170 µM
- Kd ([3]; near-UV CD titration, change in CD (mdeg) at 292 nm, BidoseResponse function, two-step mechanism, second value printed in picture, VanSA 1 mg/ml, n = 4, read-out: Binding constant (kd)): 30 µM
- Melting temperature (Tm) of VanSA in the presence of screened ligands [2]: 47 ± 5.08 °C
- changes in local tertiary structure (tyrosine/tryptophan region) [4]: changes to the tyrosine/tryptophan region
- fluorescence emission λmax of VanSA upon addition of antibiotic [5]: 329 nm
- activity of VanSA (autophosphorylation) [1]: significant increases in the activity
- phosphorylation states of VanSA (activity profile) [1]: quicker, longer-lived phosphorylation states
- potency compared with vancomycin ([6]; in vitro and in vivo, result in words): greater potency than vancomycin
